{"source": "patent US20150210717A1", "about": "“SPECIFIC INHIBITORS OF PROTEIN P21 AS THERAPEUTIC AGENTS” (BADEN-WÜRTTEMBERG STIFTUNG GMBH, priority 2012, published 2015)", "key": {"[1]": {"test_system": "p21 promoter", "test": "Cell-based p21 promoter luciferase screen with IC50 validation in H1299 cells with doxycycline-inducible p53", "conditions": "luciferase under p21 promoter, about 20 hours", "procedure": "A cell-based screen was carried out to identify p21 inhibitors (FIG. 1a). H1299 cells (a cell line having a deletion in the p53 locus) were used. The H1299 cells contain a TetOn system for the inducible expression of p53. In addition, they contain luciferase under the control of the p21 promoter, which is activated by p53. Intracellular p53 expression was induced with doxycycline (0.5 μg/ml). Immediately thereafter, cells were exposed to test substances (5 μM) of the ChemBioNet collection (Leibniz Institut far Molekulare Pharmakologie, Berlin). About 20 hours later, cells were lysed and luciferase activity was determined. […]"}, "[2]": {"test_system": "wound healing in C57BL/6 mice", "test": "Wound healing after skin biopsy in C57BL/6 mice, intradermal injection", "format": "in vivo", "from_the_text": "FIG. 4: I-18 treatment improves wound healing in 24 week C57BL/6 mice Skin-biopsies (4-5 mm) were taken at Day 0 (D0) and lesions were either treated with 118 inhibitor (right panel) or DMSO treated as control (left panel).\nFIG. 5: Depicts a statistic evaluation of the wound healing area 0, 2, and 4 days after application of I18 or placebo to wound area. Skin biopsies (4-5 mm) were taken at Day 0 of young and old C57Bl6 mice and lesions were either treated with I18 inhibitor or DMSO. […] This trend further increased at Day 4.\nSkin-biopsies (4-5 mm) were taken at Day 0 (D0) and lesions were either treated with I18 compound (FIG. 4, right panel) or DMSO as control (FIG. 4, left panel) by intradermal injection [50 μM]."}, "[3]": {"test_system": "p21-mRNA", "test": "p21-mRNA expression by qPCR in organs of Nothobranchius furzeri after intraperitoneal injection", "format": "in vivo", "conditions": "all tissues tested, 10 μM intraperitoneal, 48 h post treatment", "procedure": "FIG. 6: Decreased p21-mRNA expression in different organs of model organism Nothobranchius furzeri in response to I18-inhibitor treatment. p21-mRNA expression in different organs was analysed by quantitative PCR (qPCR) in response to treatment with the p21-inhibitor I18. Upper panel depicts the fold expression difference of p21-mRNA relative to tbp (TATA-box binding protein). Lower panel depicts fold expression of p21-mRNA relative to control (DMSO-treated animals). Note that there is an over 2-fold reduction in all tissues tested indicating the efficiency of p21-inhibitors across different species. 10 weeks old Nothobranchius furzeri were either injected intraperitoneal with I18-compound [10 μM] or with DMSO as control and sacrificed 48 h post treatment. RNA of various tissues was harvested and p21-mRNA expression was measured using quantitative PCR (qPCR). Fold expression was calculated relative to house-keeping gene tbp (TATA-box binding protein) (FIG. 6, upper panel) or control animals (FIG. 6, lower panel)."}, "[4]": {"conditions": "Homo sapiens, NCI-H1299, p53 induced with doxycycline 0.5 μg/ml"}}}
{"smiles": "COc1ccc(C2C(C#N)=C(N)Oc3c2ccc2ccccc32)cc1C", "note": "(centres unmarked) [A6, 2-amino-4-(4-methoxy-3-methylphenyl)-4H-benzo[h]chromene-3-carbonitrile]", "values": [{"measurement": "IC50", "setting": "[1]; [4]", "result": 1130, "unit": "nM"}]}
{"smiles": "CCOC(=O)c1ccc(Nc2nc3nonc3nc2Nc2cccc(C)c2C)cc1", "note": "[A13, Ethyl-4-[[5-(2,3-dimethylanilino)-[1,2,5]oxadiazolo[3,4-b]pyrazin-6-yl]amino]benzoate]", "values": [{"measurement": "IC50", "setting": "[1]; [4]", "result": 760, "unit": "nM"}]}
{"smiles": "COc1ccc(C(=O)Nc2nc(NC(=O)c3ccc(F)cc3)nn2-c2ccccc2)cc1", "note": "[E6, N-[5-[(4-Fluorobenzoyl)amino]-2-phenyl-1,2,4-triazol-3-y1]-4-methoxybenzamide]", "values": [{"measurement": "IC50", "setting": "[1]; p53 induced with doxycycline 0.5 μg/ml", "result": 490, "unit": "nM"}]}
{"smiles": "NS(=O)(=O)c1ccc(CCNc2ncnc3c2c(-c2ccccc2)cn3-c2ccc(Br)cc2)cc1", "note": "[F3, 4-[2-[[7-(4-Bromophenyl)-5-phenylpyrrolo[2,3-d]pyrimidin-4-yl]amino]ethyl]benzenesulfonamide]", "values": [{"measurement": "IC50", "setting": "[1]; [4]", "result": 6080, "unit": "nM"}]}
{"smiles": "Cc1ccc2[nH]c3c(c2c1)CCCC3Nc1ccccc1", "note": "(centres unmarked) [I18, 6-methyl-N-phenyl-2,3,4,9-tetrahydro-1H-carbazol-1-amine]", "values": [{"measurement": "wound healing in old treated mice versus p21-deficient mice", "setting": "[2]; after 4 days, old mice", "result": "comparable to p21-deficient mice"}, {"measurement": "wound healing of old mice compared to mock treated control mice of the same age", "setting": "[2]; day 2, old C57Bl6 mice, trend further increased at day 4", "result": "significantly improved"}, {"measurement": "wound healing compared to DMSO treated control mice", "setting": "[2]; day 2 and 4, skin biopsies 4-5 mm, intradermal injection 50 μM", "result": "significantly improved"}, {"measurement": "IC50", "setting": "[1]; [4]", "result": 170, "unit": "nM"}, {"measurement": "reduction of p21-mRNA expression relative to control (DMSO-treated animals)", "setting": "[3]", "result": "over 2 fold"}]}
{"smiles": "O=C(Nc1ccc(OCC(F)(F)C(F)F)c(C(F)(F)F)c1)c1ccccc1O", "note": "[K2, 2-Hydroxy-N-[4-(2,2,3,3-tetrafluoropropoxy)-3-(trifluoromethyl)phenyl)benzamide]", "values": [{"measurement": "IC50", "setting": "[1]; [4]", "result": 1720, "unit": "nM"}]}
{"smiles": "Cc1c(Br)ccc(Nc2c([N+](=O)[O-])cc3c4c(cccc24)C(=O)N(CCO)C3=O)c1C", "note": "[M3, 6-(4-Bromo-2,3-dimethylanilino)-2-(2-hydroxyethyl)-5-nitrobenzo[de]isoquinoline-1,3-dione]", "values": [{"measurement": "IC50", "setting": "[1]; [4]", "result": 3580, "unit": "nM"}]}
{"smiles": "CC(C)c1ccc(-c2c(C#N)c(N)n3c(nc4ccccc43)c2C#N)cc1", "note": "[N13, 1-Amino-3-(4-propan-2-ylphenyl)pyrido[1,2-a]benzimidazole-2,4-dicarbonitrile]", "values": [{"measurement": "IC50", "setting": "[1]; [4]", "result": 1110, "unit": "nM"}]}
{"smiles": "CCc1ccc2c(c1)C1(NN=C(c3cccc4ccccc34)S1)C(=O)N2", "note": "(centres unmarked) [O6, 5-Ethyl-5′naphthalen-1-ylspiro[1H-indole-3,2′-3H-1,3,4-thiadiazole]-2-one]", "values": [{"measurement": "IC50", "setting": "[1]; [4]", "result": 3680, "unit": "nM"}]}
{"smiles": "O=c1c2ccccc2c2nccc3c4cc(O)ccc4n1c32", "note": "[P21, 5-hydroxy-9H-benzo[c]indolo[3,2,1-ij][1,5]naphthyridin-9-one]", "values": [{"measurement": "IC50", "setting": "[1]; [4]", "result": 1070, "unit": "nM"}]}
